Measured values: article PMC7316778 (Nature Communications, 2020)
Several values for one entry are separate records, joined by “and”; a condition that tells them apart may be missing. Equal entries are not always repeated. Where two headings read alike, the source gives them in different places.

Legend:
SGKL (SGK3) = SGKL (SGK3) (Homo sapiens, UniProt Q96BR1); assay: SelectScreen kinase assay
Protocol: (§1) Selectivity profiling assays were performed by the Invitrogen SelectScreen™ Services. […] The concentration of ATP was selected to be equal to the KM, unless indicated otherwise.

DYRK1B = DYRK1B (Homo sapiens, UniProt Q9Y463); assay: SelectScreen kinase assay; conditions: 1 h, 1 μM WEL028, 1 h preincubation
Sequence of DYRK1B (Q9Y463 whole entry): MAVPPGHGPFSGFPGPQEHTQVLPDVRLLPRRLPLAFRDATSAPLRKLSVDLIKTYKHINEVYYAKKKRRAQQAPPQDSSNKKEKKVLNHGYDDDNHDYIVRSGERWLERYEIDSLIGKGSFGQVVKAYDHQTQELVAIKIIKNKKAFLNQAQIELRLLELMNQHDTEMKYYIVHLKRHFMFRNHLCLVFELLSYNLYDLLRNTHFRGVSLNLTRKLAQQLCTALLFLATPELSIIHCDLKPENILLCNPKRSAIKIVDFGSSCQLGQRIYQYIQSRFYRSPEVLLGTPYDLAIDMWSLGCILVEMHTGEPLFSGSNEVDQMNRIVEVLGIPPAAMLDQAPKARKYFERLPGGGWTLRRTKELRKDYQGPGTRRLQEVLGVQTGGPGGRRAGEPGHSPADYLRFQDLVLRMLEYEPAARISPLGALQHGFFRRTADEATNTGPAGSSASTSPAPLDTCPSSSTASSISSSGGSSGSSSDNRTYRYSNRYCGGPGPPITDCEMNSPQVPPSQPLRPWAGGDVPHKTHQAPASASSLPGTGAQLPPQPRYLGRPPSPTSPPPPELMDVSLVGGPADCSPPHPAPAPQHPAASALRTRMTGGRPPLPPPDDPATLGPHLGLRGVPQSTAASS
Protocol: as §1

PLK4 = target: T1, PLK4 (Homo sapiens, UniProt O00444); assay: SelectScreen kinase assay
T1 sequence (O00444 1-970): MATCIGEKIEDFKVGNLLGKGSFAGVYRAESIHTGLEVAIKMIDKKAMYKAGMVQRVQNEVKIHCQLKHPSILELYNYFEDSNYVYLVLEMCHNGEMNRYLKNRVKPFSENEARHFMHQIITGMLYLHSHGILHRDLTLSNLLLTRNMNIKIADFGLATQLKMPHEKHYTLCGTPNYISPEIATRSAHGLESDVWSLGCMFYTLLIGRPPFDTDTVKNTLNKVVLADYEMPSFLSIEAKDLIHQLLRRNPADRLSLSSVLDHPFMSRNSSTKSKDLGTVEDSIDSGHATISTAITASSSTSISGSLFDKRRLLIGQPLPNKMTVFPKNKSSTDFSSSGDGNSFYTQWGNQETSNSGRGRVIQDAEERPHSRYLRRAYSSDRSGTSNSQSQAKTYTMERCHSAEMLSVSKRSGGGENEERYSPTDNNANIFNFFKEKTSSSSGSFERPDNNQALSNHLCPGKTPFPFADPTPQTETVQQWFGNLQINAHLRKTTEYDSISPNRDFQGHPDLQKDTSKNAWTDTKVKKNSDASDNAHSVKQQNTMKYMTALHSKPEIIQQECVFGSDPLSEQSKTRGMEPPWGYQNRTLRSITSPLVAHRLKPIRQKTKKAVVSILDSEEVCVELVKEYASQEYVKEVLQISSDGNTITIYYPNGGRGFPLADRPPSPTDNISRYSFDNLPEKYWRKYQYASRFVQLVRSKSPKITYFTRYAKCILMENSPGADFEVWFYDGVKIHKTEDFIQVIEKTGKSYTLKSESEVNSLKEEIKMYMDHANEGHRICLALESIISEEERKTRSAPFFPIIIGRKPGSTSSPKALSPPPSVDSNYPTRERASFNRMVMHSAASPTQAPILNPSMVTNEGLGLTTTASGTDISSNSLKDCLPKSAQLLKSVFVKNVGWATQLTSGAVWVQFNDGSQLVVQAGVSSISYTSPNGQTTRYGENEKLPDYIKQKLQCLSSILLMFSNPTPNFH
Protocol: as §1

FRK (PTK5) = FRK (PTK5) (Homo sapiens, UniProt P42685); assay: SelectScreen kinase assay; conditions: for Inhibition at 1 µM (%): FRK (PTK5), ZLYTE, ATP Km app
Sequence of FRK (PTK5) (P42685 whole entry): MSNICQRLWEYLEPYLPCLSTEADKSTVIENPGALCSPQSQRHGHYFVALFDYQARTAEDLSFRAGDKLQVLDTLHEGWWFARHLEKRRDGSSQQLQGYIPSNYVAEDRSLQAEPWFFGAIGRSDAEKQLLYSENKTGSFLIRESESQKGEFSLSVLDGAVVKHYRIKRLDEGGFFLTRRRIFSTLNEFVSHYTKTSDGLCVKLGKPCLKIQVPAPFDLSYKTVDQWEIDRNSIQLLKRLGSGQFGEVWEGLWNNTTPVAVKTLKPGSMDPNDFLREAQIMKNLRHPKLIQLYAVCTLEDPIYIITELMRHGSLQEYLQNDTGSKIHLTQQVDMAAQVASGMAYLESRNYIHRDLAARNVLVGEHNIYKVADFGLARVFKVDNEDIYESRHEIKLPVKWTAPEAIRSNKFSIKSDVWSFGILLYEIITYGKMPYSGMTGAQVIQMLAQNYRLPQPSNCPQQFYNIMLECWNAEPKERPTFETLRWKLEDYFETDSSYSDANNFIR
Protocol: as §1

STK4 (MST1) = STK4 (MST1) (Homo sapiens, UniProt Q13043); assay: SelectScreen kinase assay
Sequence of STK4 (MST1) (Q13043 whole entry): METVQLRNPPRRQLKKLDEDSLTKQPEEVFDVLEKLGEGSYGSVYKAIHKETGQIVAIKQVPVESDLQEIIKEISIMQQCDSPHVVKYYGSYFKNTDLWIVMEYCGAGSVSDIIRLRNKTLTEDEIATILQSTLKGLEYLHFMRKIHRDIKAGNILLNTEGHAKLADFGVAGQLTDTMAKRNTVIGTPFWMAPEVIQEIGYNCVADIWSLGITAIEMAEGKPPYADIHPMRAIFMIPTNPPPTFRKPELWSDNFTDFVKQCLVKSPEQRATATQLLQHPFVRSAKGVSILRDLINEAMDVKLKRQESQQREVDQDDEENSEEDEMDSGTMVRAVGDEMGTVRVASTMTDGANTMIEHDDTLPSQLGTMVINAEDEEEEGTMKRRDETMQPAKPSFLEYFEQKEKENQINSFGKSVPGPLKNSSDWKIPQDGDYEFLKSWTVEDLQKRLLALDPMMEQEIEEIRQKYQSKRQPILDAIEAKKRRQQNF
Protocol: as §1

INSRR (IRR) = INSRR (IRR) (Homo sapiens, UniProt P14616); assay: SelectScreen kinase assay; conditions: 1 h, 1 μM WEL028, 1 h preincubation
Protocol: as §1

CDK3/cyclin E1 = CDK3/cyclin E1 (Homo sapiens, UniProt Q00526); assay: SelectScreen kinase assay; conditions: for Inhibition at 1 µM (%): CDK3/cyclin E1, LanthaScreen Binding
Sequence of CDK3/cyclin E1 (Q00526 whole entry): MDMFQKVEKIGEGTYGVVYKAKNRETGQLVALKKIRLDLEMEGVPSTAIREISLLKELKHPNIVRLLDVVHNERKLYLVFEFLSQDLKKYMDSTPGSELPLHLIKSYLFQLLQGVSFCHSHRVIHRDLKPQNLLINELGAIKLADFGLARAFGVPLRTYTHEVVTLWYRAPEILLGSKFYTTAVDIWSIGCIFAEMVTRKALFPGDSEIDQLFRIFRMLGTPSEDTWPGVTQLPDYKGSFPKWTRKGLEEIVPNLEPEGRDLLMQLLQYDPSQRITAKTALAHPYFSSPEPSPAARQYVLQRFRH
Sequence of CDK3/cyclin E1 (P24864 whole entry partner): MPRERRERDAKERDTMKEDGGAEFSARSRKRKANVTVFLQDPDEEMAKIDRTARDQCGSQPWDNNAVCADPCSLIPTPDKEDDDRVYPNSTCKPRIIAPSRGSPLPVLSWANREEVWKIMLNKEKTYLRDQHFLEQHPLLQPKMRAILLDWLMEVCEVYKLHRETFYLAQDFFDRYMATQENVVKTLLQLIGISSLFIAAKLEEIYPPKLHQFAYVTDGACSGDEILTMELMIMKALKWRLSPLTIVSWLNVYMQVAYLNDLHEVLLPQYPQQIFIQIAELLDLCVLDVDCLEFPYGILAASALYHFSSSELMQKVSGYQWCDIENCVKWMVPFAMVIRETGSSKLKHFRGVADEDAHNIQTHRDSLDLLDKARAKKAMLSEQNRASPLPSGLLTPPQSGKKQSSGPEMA
Protocol: as §1

MAP4K3 (GLK) = target: T2, MAP4K3 (GLK) (Homo sapiens, UniProt Q8IVH8); assay: SelectScreen kinase assay
T2 sequence (Q8IVH8 1-894): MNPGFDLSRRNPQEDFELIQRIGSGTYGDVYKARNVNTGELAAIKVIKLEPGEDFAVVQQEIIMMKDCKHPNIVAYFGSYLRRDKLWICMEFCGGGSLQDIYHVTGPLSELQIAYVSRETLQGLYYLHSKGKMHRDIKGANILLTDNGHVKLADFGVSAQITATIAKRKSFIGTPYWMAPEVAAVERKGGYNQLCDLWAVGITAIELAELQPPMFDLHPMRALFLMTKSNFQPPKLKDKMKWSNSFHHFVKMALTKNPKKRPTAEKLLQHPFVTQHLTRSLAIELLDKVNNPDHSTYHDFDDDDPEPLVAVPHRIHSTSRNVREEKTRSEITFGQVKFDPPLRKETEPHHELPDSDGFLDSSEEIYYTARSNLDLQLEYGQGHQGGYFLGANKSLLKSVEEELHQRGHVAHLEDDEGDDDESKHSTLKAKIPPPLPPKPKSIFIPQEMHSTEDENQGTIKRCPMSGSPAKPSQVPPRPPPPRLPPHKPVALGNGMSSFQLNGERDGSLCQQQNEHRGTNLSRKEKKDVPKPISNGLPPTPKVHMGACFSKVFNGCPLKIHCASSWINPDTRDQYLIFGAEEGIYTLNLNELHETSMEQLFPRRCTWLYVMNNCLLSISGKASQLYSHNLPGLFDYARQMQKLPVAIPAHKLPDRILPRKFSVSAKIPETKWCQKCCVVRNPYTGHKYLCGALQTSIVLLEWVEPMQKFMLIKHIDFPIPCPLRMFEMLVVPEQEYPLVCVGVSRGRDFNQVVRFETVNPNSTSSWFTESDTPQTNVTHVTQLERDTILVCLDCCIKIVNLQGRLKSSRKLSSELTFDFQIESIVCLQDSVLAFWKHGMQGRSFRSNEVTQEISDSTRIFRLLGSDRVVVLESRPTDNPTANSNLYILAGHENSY
Protocol: as §1

PRKCB1 (PKC beta I) = PRKCB1 (PKC beta I) (Homo sapiens, UniProt P05771); assay: SelectScreen kinase assay
Sequence of PRKCB1 (PKC beta I) (P05771 whole entry): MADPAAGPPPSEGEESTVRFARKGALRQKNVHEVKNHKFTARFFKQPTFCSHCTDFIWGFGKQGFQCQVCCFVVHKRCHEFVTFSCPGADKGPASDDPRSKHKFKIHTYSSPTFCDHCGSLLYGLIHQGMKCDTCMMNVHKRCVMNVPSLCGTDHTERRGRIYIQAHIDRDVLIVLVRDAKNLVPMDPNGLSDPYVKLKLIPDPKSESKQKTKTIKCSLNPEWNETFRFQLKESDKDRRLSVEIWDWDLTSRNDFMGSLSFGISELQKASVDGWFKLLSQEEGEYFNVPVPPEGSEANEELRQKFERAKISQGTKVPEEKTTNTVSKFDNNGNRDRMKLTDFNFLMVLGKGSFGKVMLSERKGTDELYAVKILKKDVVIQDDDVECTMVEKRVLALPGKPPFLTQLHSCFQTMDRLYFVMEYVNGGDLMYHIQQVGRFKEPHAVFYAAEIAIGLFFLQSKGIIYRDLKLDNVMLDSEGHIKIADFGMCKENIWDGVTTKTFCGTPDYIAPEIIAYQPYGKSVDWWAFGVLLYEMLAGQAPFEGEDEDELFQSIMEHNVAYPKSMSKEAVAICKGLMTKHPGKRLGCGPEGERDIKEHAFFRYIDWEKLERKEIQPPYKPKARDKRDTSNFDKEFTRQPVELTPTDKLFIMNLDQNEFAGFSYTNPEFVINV
Protocol: as §1

MARK2 = MARK2 (Homo sapiens, UniProt Q7KZI7); assay: SelectScreen kinase assay
Sequence of MARK2 (Q7KZI7 whole entry): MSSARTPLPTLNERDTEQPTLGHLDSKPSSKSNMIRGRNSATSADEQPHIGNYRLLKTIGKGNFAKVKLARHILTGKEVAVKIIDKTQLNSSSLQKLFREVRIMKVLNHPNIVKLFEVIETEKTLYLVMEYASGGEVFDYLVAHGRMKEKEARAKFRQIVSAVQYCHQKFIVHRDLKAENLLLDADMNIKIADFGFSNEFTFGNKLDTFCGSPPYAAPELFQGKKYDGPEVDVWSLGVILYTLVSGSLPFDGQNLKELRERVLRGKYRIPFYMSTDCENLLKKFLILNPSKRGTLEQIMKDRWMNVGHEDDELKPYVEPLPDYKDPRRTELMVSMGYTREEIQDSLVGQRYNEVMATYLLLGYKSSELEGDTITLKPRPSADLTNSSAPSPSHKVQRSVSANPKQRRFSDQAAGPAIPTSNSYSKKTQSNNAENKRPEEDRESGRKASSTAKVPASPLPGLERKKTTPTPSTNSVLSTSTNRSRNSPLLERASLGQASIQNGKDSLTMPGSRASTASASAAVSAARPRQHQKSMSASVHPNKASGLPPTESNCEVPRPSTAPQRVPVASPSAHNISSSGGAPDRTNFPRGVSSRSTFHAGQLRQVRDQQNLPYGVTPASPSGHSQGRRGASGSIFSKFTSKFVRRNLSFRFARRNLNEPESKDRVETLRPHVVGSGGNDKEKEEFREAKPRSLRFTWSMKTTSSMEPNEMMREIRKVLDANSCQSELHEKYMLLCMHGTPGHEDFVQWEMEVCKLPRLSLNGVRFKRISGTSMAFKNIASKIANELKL
Protocol: as §1

FES^S700C HL-60 cells = assay: Proliferation ratio during neutrophil differentiation; format: cell-based, human; conditions: 100 nM; Supplementary Figure 12d; individual replicates; listed as WEL028
PLK2 = PLK2 (Homo sapiens, UniProt Q9NYY3); assay: SelectScreen kinase assay
Sequence of PLK2 (Q9NYY3 whole entry): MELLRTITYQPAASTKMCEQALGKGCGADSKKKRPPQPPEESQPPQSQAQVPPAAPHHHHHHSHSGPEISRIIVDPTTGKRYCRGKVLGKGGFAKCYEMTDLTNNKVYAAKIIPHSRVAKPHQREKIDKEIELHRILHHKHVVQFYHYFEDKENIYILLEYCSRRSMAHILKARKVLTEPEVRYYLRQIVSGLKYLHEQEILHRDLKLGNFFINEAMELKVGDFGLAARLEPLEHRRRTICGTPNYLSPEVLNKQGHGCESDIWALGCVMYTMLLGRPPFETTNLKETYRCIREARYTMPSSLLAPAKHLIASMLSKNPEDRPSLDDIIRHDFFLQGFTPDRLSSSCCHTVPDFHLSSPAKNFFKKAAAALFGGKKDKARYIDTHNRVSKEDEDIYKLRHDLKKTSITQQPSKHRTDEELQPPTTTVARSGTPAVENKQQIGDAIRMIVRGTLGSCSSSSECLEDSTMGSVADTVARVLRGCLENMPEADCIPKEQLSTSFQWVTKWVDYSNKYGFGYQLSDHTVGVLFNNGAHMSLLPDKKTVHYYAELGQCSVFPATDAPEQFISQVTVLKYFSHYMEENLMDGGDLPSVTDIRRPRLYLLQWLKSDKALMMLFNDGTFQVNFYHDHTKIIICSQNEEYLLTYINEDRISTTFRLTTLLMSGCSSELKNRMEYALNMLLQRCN
Protocol: as §1

SRPK2 = SRPK2 (Homo sapiens, UniProt P78362); assay: SelectScreen kinase assay; conditions: 1 h, 1 μM WEL028, 1 h preincubation
Protocol: as §1

[1] = 1 h, 1 μM WEL028, 1 h preincubation

Sequence of SGKL (SGK3) (Q96BR1 whole entry): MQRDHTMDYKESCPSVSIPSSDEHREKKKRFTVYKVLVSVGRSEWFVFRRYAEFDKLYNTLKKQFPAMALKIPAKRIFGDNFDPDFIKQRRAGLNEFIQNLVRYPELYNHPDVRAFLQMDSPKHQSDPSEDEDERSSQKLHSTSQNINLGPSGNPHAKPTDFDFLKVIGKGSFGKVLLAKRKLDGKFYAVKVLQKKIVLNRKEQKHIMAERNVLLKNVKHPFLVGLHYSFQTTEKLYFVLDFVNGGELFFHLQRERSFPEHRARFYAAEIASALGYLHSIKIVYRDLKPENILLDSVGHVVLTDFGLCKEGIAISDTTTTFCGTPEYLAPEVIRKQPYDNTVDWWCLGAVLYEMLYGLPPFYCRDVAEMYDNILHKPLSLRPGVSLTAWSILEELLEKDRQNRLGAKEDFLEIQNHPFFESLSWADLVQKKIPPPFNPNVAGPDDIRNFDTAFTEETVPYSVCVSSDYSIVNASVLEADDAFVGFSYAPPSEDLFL

For `C#CCOc1ccc(Nc2ncc(Cl)c(Nc3ccccc3NC(=O)C=C)n2)c(OC)c1` [Compound 6], the “Inhibition at 1 µM (%)” value (SGKL (SGK3); 1 µM, ZLYTE, ATP Km app, listed as WEL028, 1 µM) was -12% and -2%, the inhibition at 1 µM (SGKL (SGK3); [1]) was -7% and the inhibition at 1 µM (DYRK1B) was 0%. The IC50 (PLK4) was 25.1 nM, the inhibition at 1 µM (PLK4; [1]) was 98% and the Apparent fold selectivity (PLK4; IC50 on that kinase divided by IC50 on FES^S700C) was 6 fold. For the same molecule, the inhibition at 1 µM (PLK4; read-out: Inhibition at 1 µM (%), PLK4, 1 µM, LanthaScreen Binding) was 99%, the inhibition at 1 µM (FRK (PTK5); [1]) was 7% and the “Inhibition at 1 µM (%)” value (FRK (PTK5)) was 11%. The “Inhibition at 1 µM (%)” value (FRK (PTK5); listed as WEL028, 1 µM) was 4%, the “Inhibition (%)” value (STK4 (MST1); 1 μM WEL028, 1 h preincubation) was 3% and the “Inhibition at 1 µM (%)” value (STK4 (MST1); 1 µM, ZLYTE, ATP Km app) was 11%. For the same molecule, the inhibition at 1 µM (INSRR (IRR)) was 9%, the “Inhibition (%)” value (CDK3/cyclin E1; 1 μM WEL028, 1 h preincubation) was 1% and the “Inhibition at 1 µM (%)” value (CDK3/cyclin E1) was -3%. For the same molecule, the “Inhibition at 1 µM (%)” value (CDK3/cyclin E1; listed as WEL028, 1 µM) was 5%, the “Inhibition (%)” value (MAP4K3 (GLK); 1 μM WEL028, 1 h preincubation) was 3% and the “Inhibition at 1 µM (%)” value (MAP4K3 (GLK); MAP4K3 (GLK), 1 µM, LanthaScreen Binding, listed as WEL028, 1 µM) was 2%. The inhibition at 1 µM (MAP4K3 (GLK); read-out: Inhibition at 1 µM (%), MAP4K3 (GLK), 1 µM, LanthaScreen Binding) was 4%, the inhibition at 1 µM (PRKCB1 (PKC beta I); [1]) was 16% and the “Inhibition at 1 µM (%)” value (PRKCB1 (PKC beta I); PRKCB1 (PKC beta I), 1 µM, ZLYTE, ATP Km app) was 25%. The inhibition at 1 µM (MARK2; [1]) was 8%, the “Inhibition at 1 µM (%)” value (MARK2; MARK2, 1 µM, ZLYTE, ATP Km app, listed as WEL028, 1 µM) was 9% and the inhibition at 1 µM (MARK2; read-out: Inhibition at 1 µM (%), MARK2, 1 µM, ZLYTE, ATP Km app) was 6%. The Proliferation ratio (FES^S700C HL-60 cells) was 1.625 and 1.925 and 1.9, the “Inhibition (%)” value (PLK2; 1 μM WEL028, 1 h preincubation) was 12% and the “Inhibition at 1 µM (%)” value (PLK2; PLK2, 1 µM, ZLYTE, ATP Km app, listed as WEL028, 1 µM) was 15%. It also gave an inhibition at 1 µM (PLK2; read-out: Inhibition at 1 µM (%), PLK2, 1 µM, ZLYTE, ATP Km app) of 8% and an inhibition at 1 µM (SRPK2) of -1%.
